Measured values: ChEMBL document CHEMBL1152367, “Discovery and functional evaluation of diverse novel human CB(1) receptor ligands” (Bioorg Med Chem Lett, 2009)

Target: T1, Cannabinoid receptor 1 (Homo sapiens, UniProt P21554)
Test: Displacement of [3H]rimonabant from human CB1 receptor expressed in HEK293 cells assessed as signal point inhibition at 10 uM by liquid scintillation counting
Assay type: cell-based

T1 sequence (P21554 whole entry): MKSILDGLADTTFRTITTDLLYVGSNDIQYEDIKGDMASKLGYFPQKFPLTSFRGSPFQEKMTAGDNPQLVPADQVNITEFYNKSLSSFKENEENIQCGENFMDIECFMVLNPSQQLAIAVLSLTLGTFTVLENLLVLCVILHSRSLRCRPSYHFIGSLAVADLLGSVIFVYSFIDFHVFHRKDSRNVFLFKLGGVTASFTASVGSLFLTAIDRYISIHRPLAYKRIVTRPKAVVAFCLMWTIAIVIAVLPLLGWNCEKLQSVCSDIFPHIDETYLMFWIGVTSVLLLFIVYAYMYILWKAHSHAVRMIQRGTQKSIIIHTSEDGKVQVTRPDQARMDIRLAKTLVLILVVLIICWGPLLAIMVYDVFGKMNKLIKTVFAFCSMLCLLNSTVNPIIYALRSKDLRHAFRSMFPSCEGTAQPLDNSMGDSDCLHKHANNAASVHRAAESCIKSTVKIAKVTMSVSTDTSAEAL

SMILES | inhibition [%]
Cc1cccc(C)c1N(C(=O)c1ccccc1Cl)C(=O)C(c1ccc([N+](=O)[O-])cc1)N1CCOCC1 (configuration not stated) | 79
CCCNC(=O)N1CCN(c2nc(Cc3ccccc3)c3c(c2C#N)CC(C)(C)OC3)CC1 | 81
Cc1cc(C)c(OCC(=O)Nc2sc3c(c2C(=O)NC2CCS(=O)(=O)C2)CCCC3)c(C)c1 (configuration not stated) | 94
COc1ccccc1NC(=O)C(C)Sc1nc(-c2ccc(C)cc2)nc2c1COC(C)(C)C2 (configuration not stated) | 85
CC(C)CN(CC(=O)N1CCc2sccc2C1c1ccc(F)cc1)C(=O)c1ccco1 (configuration not stated) | 89
COC(=O)c1c(C)oc(C)c1S(=O)(=O)N1CCN(C2c3ccccc3-c3ccccc32)CC1 | 87
CC(C)N(CC(=O)N1c2ccccc2-n2cccc2C1c1ccc(F)cc1)C(=O)CC(C)(C)C (configuration not stated) | 64
COc1ccccc1N1CCN(C(=O)C(C)Sc2nc(-c3ccccc3)cc(C(F)(F)F)n2)CC1 (configuration not stated) | 80
Cc1cc(-c2ccccc2)n(Cc2ccccc2)c(=O)c1S(=O)(=O)c1ccccc1 | 73
O=C(c1ccc(-n2cnnn2)cc1)N(c1ccccc1)C1(C(=O)Nc2ccccc2)CCCCC1 | 71
Cc1ccc(Cc2nsc(N3CCCN(C(=O)Nc4c(C(C)C)cccc4C(C)C)CC3)n2)cc1 | 77
COc1ccc(C2c3cccn3-c3ccccc3N2C(=O)CN(C(=O)NC(C)(C)C)C(C)C)cc1 (configuration not stated) | 95
CCOC(=O)N1CC=C2C(C1)C1(C(=O)N(Cc3ccccc3)c3ccccc31)C(C#N)=C(N)C2(C#N)C#N (configuration not stated) | 82
CCOC(=O)CN1C(c2ccc(F)cc2)Nc2ccc(Br)cc2C1c1ccccc1 (configuration not stated) | 77
O=C(Nc1ccccc1Oc1ccccc1)c1ccc(S(=O)(=O)N2CCc3ccccc32)cc1 | 82
COc1ccc(-c2cc(C(=O)N3CCN(C(C)=O)CC3)n(-c3cccc(C)c3)n2)c(OC)c1 | 77
CC1CC(C)CN(S(=O)(=O)c2ccc(F)c(C(=O)NC(c3ccccc3)c3ccccc3)c2)C1 (configuration not stated) | 77
Cc1ccc(C(=O)n2cc(/C=N/Nc3nc(N4CCOCC4)nc(N4CCOCC4)n3)c3ccccc32)cc1 | 85
Cc1ccc(C(C(=O)Nc2ccc3c(c2)OCCO3)N(C)C(=O)/C=C\c2ccc3c(c2)OCO3)cc1 (configuration not stated) | 71
CC(C)NC(=O)C(C)Sc1nnc2c3ccccc3n(Cc3ccccc3)c2n1 (configuration not stated) | 86
CC1CN(c2ncnc(NC(c3ccccc3)c3ccccc3)c2[N+](=O)[O-])CC(C)O1 (configuration not stated) | 67
CS/C(=N\S(=O)(=O)c1ccc(-n2nc(C(F)(F)F)cc2-c2cccs2)cc1)N1CCCC1 | 63
COc1ccc(C2C(C(=O)Nc3cccc(C)n3)c3ccccc3C(=O)N2C2CCCCC2)cc1 (configuration not stated) | 69
COc1cccc(N2C(C(C)=O)=NN(c3ccc(Cl)cc3)C2c2ccc(N3CCOCC3)cc2)c1 (configuration not stated) | 90
Cc1ccc(C2c3cccn3-c3ccccc3N2C(=O)CN(C(=O)C2CCCC2)C2CC2)cc1 (configuration not stated) | 78
CC(C)(C)c1ccc(C(=O)N2C(C(=O)NCc3ccccn3)CSC2c2cccc(F)c2)cc1 (configuration not stated) | 62
CCOC(=O)N1CCN(C(=O)c2cc(-c3ccccc3Cl)nn2-c2ccc(C)cc2C)CC1 | 98
COc1ccc(C2c3ccsc3CCN2C(=O)CN(C(=O)C2CCCCC2)C(C)C)cc1 (configuration not stated) | 82
CC(C(=O)N1c2ccccc2C(C)(c2ccc(Cl)cc2)CC1(C)C)N1C(=O)C2CCCCC2C1=O (configuration not stated) | 73

Target: T1, Cannabinoid receptor 1
Test: biochemical
Assay type: cell-based, HEK293

SMILES | Ki [µM]
Cc1cccc(C)c1N(C(=O)c1ccccc1Cl)C(=O)C(c1ccc([N+](=O)[O-])cc1)N1CCOCC1 (configuration not stated) | 2.78
CCCNC(=O)N1CCN(c2nc(Cc3ccccc3)c3c(c2C#N)CC(C)(C)OC3)CC1 | 3.95
Cc1cc(C)c(OCC(=O)Nc2sc3c(c2C(=O)NC2CCS(=O)(=O)C2)CCCC3)c(C)c1 (configuration not stated) | 0.325
COc1ccccc1NC(=O)C(C)Sc1nc(-c2ccc(C)cc2)nc2c1COC(C)(C)C2 (configuration not stated) | 0.264
CC(C)CN(CC(=O)N1CCc2sccc2C1c1ccc(F)cc1)C(=O)c1ccco1 (configuration not stated) | 0.875
COC(=O)c1c(C)oc(C)c1S(=O)(=O)N1CCN(C2c3ccccc3-c3ccccc32)CC1 | 1.61
CC(C)N(CC(=O)N1c2ccccc2-n2cccc2C1c1ccc(F)cc1)C(=O)CC(C)(C)C (configuration not stated) | 1.03
COc1ccccc1N1CCN(C(=O)C(C)Sc2nc(-c3ccccc3)cc(C(F)(F)F)n2)CC1 (configuration not stated) | 2.31
Cc1cc(-c2ccccc2)n(Cc2ccccc2)c(=O)c1S(=O)(=O)c1ccccc1 | 2.72
O=C(c1ccc(-n2cnnn2)cc1)N(c1ccccc1)C1(C(=O)Nc2ccccc2)CCCCC1 | 1.05
Cc1ccc(Cc2nsc(N3CCCN(C(=O)Nc4c(C(C)C)cccc4C(C)C)CC3)n2)cc1 | 1.76
COc1ccc(C2c3cccn3-c3ccccc3N2C(=O)CN(C(=O)NC(C)(C)C)C(C)C)cc1 (configuration not stated) | 0.308
CCOC(=O)N1CC=C2C(C1)C1(C(=O)N(Cc3ccccc3)c3ccccc31)C(C#N)=C(N)C2(C#N)C#N (configuration not stated) | 1.09
CCOC(=O)CN1C(c2ccc(F)cc2)Nc2ccc(Br)cc2C1c1ccccc1 (configuration not stated) | 0.273
O=C(Nc1ccccc1Oc1ccccc1)c1ccc(S(=O)(=O)N2CCc3ccccc32)cc1 | 0.256
COc1ccc(-c2cc(C(=O)N3CCN(C(C)=O)CC3)n(-c3cccc(C)c3)n2)c(OC)c1 | 1.94
CC1CC(C)CN(S(=O)(=O)c2ccc(F)c(C(=O)NC(c3ccccc3)c3ccccc3)c2)C1 (configuration not stated) | 0.611
Cc1ccc(C(=O)n2cc(/C=N/Nc3nc(N4CCOCC4)nc(N4CCOCC4)n3)c3ccccc32)cc1 | 2.3
Cc1ccc(C(C(=O)Nc2ccc3c(c2)OCCO3)N(C)C(=O)/C=C\c2ccc3c(c2)OCO3)cc1 (configuration not stated) | 1.47
CC(C)NC(=O)C(C)Sc1nnc2c3ccccc3n(Cc3ccccc3)c2n1 (configuration not stated) | 2.27
CC1CN(c2ncnc(NC(c3ccccc3)c3ccccc3)c2[N+](=O)[O-])CC(C)O1 (configuration not stated) | 1.18
CS/C(=N\S(=O)(=O)c1ccc(-n2nc(C(F)(F)F)cc2-c2cccs2)cc1)N1CCCC1 | 1
COc1ccc(C2C(C(=O)Nc3cccc(C)n3)c3ccccc3C(=O)N2C2CCCCC2)cc1 (configuration not stated) | 2.4
COc1cccc(N2C(C(C)=O)=NN(c3ccc(Cl)cc3)C2c2ccc(N3CCOCC3)cc2)c1 (configuration not stated) | 0.227
Cc1ccc(C2c3cccn3-c3ccccc3N2C(=O)CN(C(=O)C2CCCC2)C2CC2)cc1 (configuration not stated) | 0.52
CC(C)(C)c1ccc(C(=O)N2C(C(=O)NCc3ccccn3)CSC2c2cccc(F)c2)cc1 (configuration not stated) | 7.49
CCOC(=O)N1CCN(C(=O)c2cc(-c3ccccc3Cl)nn2-c2ccc(C)cc2C)CC1 | 0.287
COc1ccc(C2c3ccsc3CCN2C(=O)CN(C(=O)C2CCCCC2)C(C)C)cc1 (configuration not stated) | 2.59
CC(C(=O)N1c2ccccc2C(C)(c2ccc(Cl)cc2)CC1(C)C)N1C(=O)C2CCCCC2C1=O (configuration not stated) | 0.52

Target: Cannabinoid receptor 2 (Homo sapiens, UniProt P34972)
Test: Displacement of [3H]rimonabant from human CB2 receptor expressed in HEK293 cells by liquid scintillation counting
Assay type: cell-based

Cannabinoid receptor 2, sequence (P34972 whole entry): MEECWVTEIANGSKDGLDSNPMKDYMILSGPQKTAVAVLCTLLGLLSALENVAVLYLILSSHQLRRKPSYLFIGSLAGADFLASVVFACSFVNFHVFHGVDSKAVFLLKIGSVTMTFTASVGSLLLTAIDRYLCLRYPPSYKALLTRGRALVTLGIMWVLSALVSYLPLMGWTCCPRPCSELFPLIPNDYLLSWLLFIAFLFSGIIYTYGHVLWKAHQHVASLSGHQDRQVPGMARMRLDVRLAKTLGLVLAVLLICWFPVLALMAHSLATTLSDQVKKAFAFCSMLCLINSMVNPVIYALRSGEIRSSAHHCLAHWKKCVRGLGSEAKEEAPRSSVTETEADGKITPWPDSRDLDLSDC

SMILES | Ki [µM]
Cc1cc(C)c(OCC(=O)Nc2sc3c(c2C(=O)NC2CCS(=O)(=O)C2)CCCC3)c(C)c1 (configuration not stated) | 0.058
COc1ccccc1NC(=O)C(C)Sc1nc(-c2ccc(C)cc2)nc2c1COC(C)(C)C2 (configuration not stated) | 10
COc1ccc(C2c3cccn3-c3ccccc3N2C(=O)CN(C(=O)NC(C)(C)C)C(C)C)cc1 (configuration not stated) | 4.95
O=C(Nc1ccccc1Oc1ccccc1)c1ccc(S(=O)(=O)N2CCc3ccccc32)cc1 | 10
CC1CC(C)CN(S(=O)(=O)c2ccc(F)c(C(=O)NC(c3ccccc3)c3ccccc3)c2)C1 (configuration not stated) | 10
COc1cccc(N2C(C(C)=O)=NN(c3ccc(Cl)cc3)C2c2ccc(N3CCOCC3)cc2)c1 (configuration not stated) | 3.92
Cc1ccc(C2c3cccn3-c3ccccc3N2C(=O)CN(C(=O)C2CCCC2)C2CC2)cc1 (configuration not stated) | 10
CCOC(=O)N1CCN(C(=O)c2cc(-c3ccccc3Cl)nn2-c2ccc(C)cc2C)CC1 | 1.07

Target: T1, Cannabinoid receptor 1
Test: Inverse agonist activity at human CB1 receptor by [35S]GTPgammaS incorporation assay
Assay type: functional

SMILES | EC50 [µM]
Cc1cc(C)c(OCC(=O)Nc2sc3c(c2C(=O)NC2CCS(=O)(=O)C2)CCCC3)c(C)c1 (configuration not stated) | 0.4
COc1ccccc1NC(=O)C(C)Sc1nc(-c2ccc(C)cc2)nc2c1COC(C)(C)C2 (configuration not stated) | 1.2
CC(C)CN(CC(=O)N1CCc2sccc2C1c1ccc(F)cc1)C(=O)c1ccco1 (configuration not stated) | 4.4
CC(C)N(CC(=O)N1c2ccccc2-n2cccc2C1c1ccc(F)cc1)C(=O)CC(C)(C)C (configuration not stated) | 1.1
COc1ccc(C2c3cccn3-c3ccccc3N2C(=O)CN(C(=O)NC(C)(C)C)C(C)C)cc1 (configuration not stated) | 1.5
O=C(Nc1ccccc1Oc1ccccc1)c1ccc(S(=O)(=O)N2CCc3ccccc32)cc1 | 0.2
CCN(Cc1ccccc1)C(=O)c1oc2ccc(S(=O)(=O)N3CC(C)CC(C)C3)cc2c1C (configuration not stated) | 0.3
CC1CC(C)CN(S(=O)(=O)c2ccc(F)c(C(=O)NC(c3ccccc3)c3ccccc3)c2)C1 (configuration not stated) | 0.5
COc1cccc(N2C(C(C)=O)=NN(c3ccc(Cl)cc3)C2c2ccc(N3CCOCC3)cc2)c1 (configuration not stated) | 0.6
Cc1ccc(C2c3cccn3-c3ccccc3N2C(=O)CN(C(=O)C2CCCC2)C2CC2)cc1 (configuration not stated) | 1.1
CCOC(=O)N1CCN(C(=O)c2cc(-c3ccccc3Cl)nn2-c2ccc(C)cc2C)CC1 | 0.2

Target: T1, Cannabinoid receptor 1
Test: Inverse agonist activity at human CB1 receptor by [35S]GTPgammaS incorporation assay relative to rimonabant
Assay type: functional
Set-up: concentration or dose not given beside the values

SMILES | Activity [%]
Cc1cc(C)c(OCC(=O)Nc2sc3c(c2C(=O)NC2CCS(=O)(=O)C2)CCCC3)c(C)c1 (configuration not stated) | 60
COc1ccccc1NC(=O)C(C)Sc1nc(-c2ccc(C)cc2)nc2c1COC(C)(C)C2 (configuration not stated) | 91
CC(C)CN(CC(=O)N1CCc2sccc2C1c1ccc(F)cc1)C(=O)c1ccco1 (configuration not stated) | 105
CC(C)N(CC(=O)N1c2ccccc2-n2cccc2C1c1ccc(F)cc1)C(=O)CC(C)(C)C (configuration not stated) | 77
COc1ccc(C2c3cccn3-c3ccccc3N2C(=O)CN(C(=O)NC(C)(C)C)C(C)C)cc1 (configuration not stated) | 103
O=C(Nc1ccccc1Oc1ccccc1)c1ccc(S(=O)(=O)N2CCc3ccccc32)cc1 | 62
CCN(Cc1ccccc1)C(=O)c1oc2ccc(S(=O)(=O)N3CC(C)CC(C)C3)cc2c1C (configuration not stated) | 95
CC1CC(C)CN(S(=O)(=O)c2ccc(F)c(C(=O)NC(c3ccccc3)c3ccccc3)c2)C1 (configuration not stated) | 50
COc1cccc(N2C(C(C)=O)=NN(c3ccc(Cl)cc3)C2c2ccc(N3CCOCC3)cc2)c1 (configuration not stated) | 81
Cc1ccc(C2c3cccn3-c3ccccc3N2C(=O)CN(C(=O)C2CCCC2)C2CC2)cc1 (configuration not stated) | 91
CCOC(=O)N1CCN(C(=O)c2cc(-c3ccccc3Cl)nn2-c2ccc(C)cc2C)CC1 | 44

Species on record: Homo sapiens
Test: Selectivity ratio of Ki for human CB2 receptor to Ki for human CB1 receptor

SMILES | Ratio Ki
Cc1cc(C)c(OCC(=O)Nc2sc3c(c2C(=O)NC2CCS(=O)(=O)C2)CCCC3)c(C)c1 (configuration not stated) | 0.2
COc1ccccc1NC(=O)C(C)Sc1nc(-c2ccc(C)cc2)nc2c1COC(C)(C)C2 (configuration not stated) | > 37.9
COc1ccc(C2c3cccn3-c3ccccc3N2C(=O)CN(C(=O)NC(C)(C)C)C(C)C)cc1 (configuration not stated) | 16.1
O=C(Nc1ccccc1Oc1ccccc1)c1ccc(S(=O)(=O)N2CCc3ccccc32)cc1 | > 39
CCN(Cc1ccccc1)C(=O)c1oc2ccc(S(=O)(=O)N3CC(C)CC(C)C3)cc2c1C (configuration not stated) | 33.7
CC1CC(C)CN(S(=O)(=O)c2ccc(F)c(C(=O)NC(c3ccccc3)c3ccccc3)c2)C1 (configuration not stated) | > 16.4
COc1cccc(N2C(C(C)=O)=NN(c3ccc(Cl)cc3)C2c2ccc(N3CCOCC3)cc2)c1 (configuration not stated) | 17.3
Cc1ccc(C2c3cccn3-c3ccccc3N2C(=O)CN(C(=O)C2CCCC2)C2CC2)cc1 (configuration not stated) | > 19.2
CCOC(=O)N1CCN(C(=O)c2cc(-c3ccccc3Cl)nn2-c2ccc(C)cc2C)CC1 | 3.7
